# Positions of bridges follow the written chain, without caps; N, C: chain ends. Non-standard residues stand in square brackets, D forms with d. Residues, ends and D or L forms follow the SMILES beside them. *: point of attachment. DOTA = O=C(O)CN1CCN(CC(=O)O)CCN(CC(=O)*)CCN(CC(=O)O)CC1; Trp(5-F) = N[C@@H](Cc1c[nH]c2ccc(F)cc12)C(=O)O; N(CH2CH2COOH)Gly = O=C(O)CCNCC(=O)O; 4Pal = N[C@@H](Cc1ccncc1)C(=O)O; Chg = N[C@H](C(=O)O)C1CCCCC1; Tle = CC(C)(C)[C@H](N)C(=O)O; Nle = CCCC[C@H](N)C(=O)O; Orn = NCCC[C@H](N)C(=O)O; NEtG = CCNCC(=O)O
# Target: T1, human 4lg B7-H3 (Homo sapiens, UniProt Q5ZPR3)
# T1 sequence (Q5ZPR3 29-534): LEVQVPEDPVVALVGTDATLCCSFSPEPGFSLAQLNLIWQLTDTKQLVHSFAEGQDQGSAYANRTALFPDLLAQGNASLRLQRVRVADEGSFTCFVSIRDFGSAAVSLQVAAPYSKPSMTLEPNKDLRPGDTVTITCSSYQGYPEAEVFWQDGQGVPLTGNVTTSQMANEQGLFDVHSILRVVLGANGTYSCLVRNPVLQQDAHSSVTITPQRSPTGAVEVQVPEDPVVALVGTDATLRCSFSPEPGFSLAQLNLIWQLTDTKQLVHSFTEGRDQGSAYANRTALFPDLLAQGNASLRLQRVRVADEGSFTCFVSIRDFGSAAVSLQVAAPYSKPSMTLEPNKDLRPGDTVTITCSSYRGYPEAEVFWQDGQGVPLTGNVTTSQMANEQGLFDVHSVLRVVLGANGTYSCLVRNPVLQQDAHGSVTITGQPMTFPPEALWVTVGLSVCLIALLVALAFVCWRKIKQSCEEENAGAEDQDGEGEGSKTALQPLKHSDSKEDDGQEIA
# Assay: Affinity determination by surface plasmon resonance (SPR) to 4Ig B7-H3
# Conditions: 4Ig B7-H3
# [1] = SPR KD—25° C., 25° C. flow cell temperature
# [2] = SPR KD—37° C., 37° C. flow cell temperature
SMILES,Kd [1] [nM],Kd [2] [nM]
"CCCC[C@H](NC(C)=O)C(=O)N[C@@H](Cc1ccc(O)cc1)C(=O)N[C@H]1CSSC[C@@H](C(=O)N[C@@H](Cc2c[nH]c3ccccc23)C(=O)N[C@@H](Cc2ccccc2)C(=O)N[C@H](C(N)=O)[C@@H](C)O)NC(=O)[C@H](Cc2ccc(O)cc2)NC(=O)[C@H](C(C)C)NC(=O)[C@H](CC(=O)O)NC(=O)[C@H](Cc2ccc(O)cc2)NC(=O)[C@H](CCCCN)NC(=O)CNC(=O)[C@H](C(C)C)NC1=O [compound 32, Ac-Nle-Y-C-V-G-K-Y-D-V-Y-C-W-F-Thr-CONH2] (Ac-[Nle]YCVGKYDVYCWFT-NH2; disulfide 3-11)",1 to 10,10 to 100
"CCCC[C@H](NC(C)=O)C(=O)N[C@@H](Cc1ccc(O)cc1)C(=O)N[C@H]1CSSC[C@@H](C(=O)N[C@@H](Cc2c[nH]c3ccccc23)C(=O)N[C@@H](Cc2ccccc2)C(=O)N[C@@H](CCC(=O)O)C(N)=O)NC(=O)[C@H](Cc2ccc(O)cc2)NC(=O)[C@H](C(C)C)NC(=O)[C@H](CC(=O)O)NC(=O)[C@H](Cc2ccc(O)cc2)NC(=O)[C@H](CCCCN)NC(=O)CNC(=O)[C@H](C(C)C)NC1=O [compound 34, Ac-Nle-Y-C-V-G-K-Y-D-V-Y-C-W-F-E-CONH2] (Ac-[Nle]YCVGKYDVYCWFE-NH2; disulfide 3-11)",1 to 10,10 to 100
"CCCC[C@H](NC(C)=O)C(=O)N[C@@H](Cc1ccc(O)cc1)C(=O)N[C@H]1CSSC[C@@H](C(=O)N[C@@H](Cc2c[nH]c3ccccc23)C(=O)N[C@@H](Cc2ccccc2)C(=O)N[C@@H](CCC(N)=O)C(=O)O)NC(=O)[C@H](Cc2ccc(O)cc2)NC(=O)[C@H](C(C)C)NC(=O)[C@H](CC(=O)O)NC(=O)[C@H](Cc2ccc(O)cc2)NC(=O)[C@H](CCCCN)NC(=O)CNC(=O)[C@H](C(C)C)NC1=O [compound 35, Ac-Nle-Y-C-V-G-K-Y-D-V-Y-C-W-F-gE-CONH2]",10 to 100,
"CCCC[C@H](NC(C)=O)C(=O)N[C@@H](Cc1ccc(O)cc1)C(=O)N[C@H]1CSSC[C@@H](C(=O)N[C@@H](Cc2c[nH]c3ccccc23)C(=O)N[C@@H](Cc2ccccc2)C(N)=O)NC(=O)[C@H](Cc2ccc(O)cc2)NC(=O)[C@H](C(C)C)NC(=O)[C@H](CC(=O)O)NC(=O)[C@H](Cc2ccc(O)cc2)NC(=O)[C@H](CCCCN)NC(=O)CN(CC)C(=O)[C@H](C(C)C)NC1=O [compound 52, Ac-Nle-Y-C-V-NetGly-K-Y-D-V-Y-C-W-F-CONH2] (Ac-[Nle]YCV[NEtG]KYDVYCWF-NH2; disulfide 3-11)",10 to 100,
"CCCC[C@H](NC(C)=O)C(=O)N[C@@H](Cc1ccc(O)cc1)C(=O)N[C@H]1CSSC[C@@H](C(=O)N[C@@H](Cc2c[nH]c3ccccc23)C(=O)N[C@@H](Cc2ccccc2)C(N)=O)NC(=O)[C@H](Cc2ccc(O)cc2)NC(=O)[C@H](C(C)C)NC(=O)[C@H](CC(=O)O)NC(=O)[C@H](Cc2ccc(O)cc2)NC(=O)[C@H](CCCCN)NC(=O)CN(CCC(=O)O)C(=O)[C@H](C(C)C)NC1=O [compound 53, Ac-Nle-Y-C-V-N(CH2)2COOHGly-K-Y-D-V-Y-C-W-F-CONH2] (Ac-[Nle]YCV[N(CH2CH2COOH)Gly]KYDVYCWF-NH2; disulfide 3-11)",,100 to 300
"CCCC[C@H](NC(C)=O)C(=O)N[C@@H](Cc1ccc(O)cc1)C(=O)N[C@H]1CSSC[C@@H](C(=O)N[C@@H](Cc2c[nH]c3ccccc23)C(=O)N[C@@H](Cc2ccccc2)C(=O)N[C@H](C(=O)N[C@H](CCCCNC(=O)CN2CCN(CC(=O)O)CCN(CC(=O)O)CCN(CC(=O)O)CC2)C(N)=O)[C@@H](C)O)NC(=O)[C@H](Cc2ccc(O)cc2)NC(=O)[C@H](C(C)C)NC(=O)[C@H](CC(=O)O)NC(=O)[C@H](Cc2ccc(O)cc2)NC(=O)[C@H](CCCCN)NC(=O)CNC(=O)[C@H](C2CCCCC2)NC1=O [compound 54, Ac-Nle-Y-C-ChG-G-K-Y-D-V-Y-C-W-F-Thr-dLys(DOTA)-CONH2] (Ac-[Nle]YC[Chg]GKYDVYCWFT[dK](DOTA)-NH2; disulfide 3-11)",10 to 100,

# The next lines start with the values.
Kd [1] [nM],Kd [2] [nM],SMILES
1 to 10,,"CCCC[C@H](NC(C)=O)C(=O)N[C@@H](Cc1ccc(O)cc1)C(=O)N[C@H]1CSSC[C@@H](C(=O)N[C@@H](Cc2c[nH]c3ccccc23)C(=O)N[C@@H](Cc2ccccc2)C(=O)N[C@H](C(=O)N[C@H](CCCCNC(=O)CN2CCN(CC(=O)O)CCN(CC(=O)O)CCN(CC(=O)O)CC2)C(N)=O)[C@@H](C)O)NC(=O)[C@H](Cc2ccc(O)cc2)NC(=O)[C@H](C2CCCCC2)NC(=O)[C@H](CC(=O)O)NC(=O)[C@H](Cc2ccc(O)cc2)NC(=O)[C@H](CCCCN)NC(=O)CNC(=O)[C@H](C(C)C)NC1=O [compound 55, Ac-Nle-Y-C-V-G-K-Y-D-ChG-Y-C-W-F-Thr-dLys(DOTA)-CONH2] (Ac-[Nle]YCVGKYD[Chg]YCWFT[dK](DOTA)-NH2; disulfide 3-11)"
10 to 100,,"CC(=O)N[C@@H](CC(C)C)C(=O)N[C@@H](Cc1ccc(O)cc1)C(=O)N[C@H]1CSSC[C@@H](C(=O)N[C@@H](Cc2c[nH]c3ccccc23)C(=O)N[C@@H](Cc2ccccc2)C(=O)N[C@H](C(=O)N[C@H](CCCCNC(=O)CN2CCN(CC(=O)O)CCN(CC(=O)O)CCN(CC(=O)O)CC2)C(N)=O)[C@@H](C)O)NC(=O)[C@H](Cc2ccc(O)cc2)NC(=O)[C@H](C(C)C)NC(=O)[C@H](CC(=O)O)NC(=O)[C@H](Cc2ccc(O)cc2)NC(=O)[C@H](CCCCN)NC(=O)CNC(=O)[C@H](C(C)C)NC1=O [compound 56, Ac-Leu-Y-C-V-G-K-Y-D-V-Y-C-W-F-Thr-dLys(DOTA)-CONH2] (Ac-LYCVGKYDVYCWFT[dK](DOTA)-NH2; disulfide 3-11)"
1 to 10,,"CCCC[C@H](NC(C)=O)C(=O)N[C@@H](Cc1ccc(O)cc1)C(=O)N[C@H]1CSSC[C@@H](C(=O)N[C@@H](Cc2c[nH]c3ccccc23)C(=O)N[C@@H](Cc2ccccc2)C(=O)N[C@H](C(=O)N[C@H](CCCCNC(=O)CN2CCN(CC(=O)O)CCN(CC(=O)O)CCN(CC(=O)O)CC2)C(N)=O)[C@@H](C)O)NC(=O)[C@H](Cc2ccc(O)cc2)NC(=O)[C@H](C(C)C)NC(=O)[C@H](CC(=O)O)NC(=O)[C@H](Cc2ccncc2)NC(=O)[C@H](CCCCN)NC(=O)CNC(=O)[C@H](C(C)C)NC1=O [compound 58, Ac-Nie-Y-C-V-G-K-4PyA-D-V-Y-C-W-F-Thr-dLys(DOTA)-CONH2] (Ac-[Nle]YCVGK[4Pal]DVYCWFT[dK](DOTA)-NH2; disulfide 3-11)"
1 to 10,,"CCCC[C@H](NC(C)=O)C(=O)N[C@@H](Cc1ccc(O)cc1)C(=O)N[C@H]1CSSC[C@@H](C(=O)N[C@@H](Cc2c[nH]c3ccc(F)cc23)C(=O)N[C@@H](Cc2ccccc2)C(=O)N[C@H](C(N)=O)[C@@H](C)O)NC(=O)[C@H](Cc2ccc(O)cc2)NC(=O)[C@H](C(C)C)NC(=O)[C@H](CC(=O)O)NC(=O)[C@H](Cc2ccc(O)cc2)NC(=O)[C@H](CCCCN)NC(=O)CNC(=O)[C@H](C(C)C)NC1=O [compound 59, Ac-Nle-Y-C-V-G-K-Y-D-V-Y-C-5FW-F-Thr-CONH2] (Ac-[Nle]YCVGKYDVYC[Trp(5-F)]FT-NH2; disulfide 3-11)"
1 to 10,,"CCCC[C@H](NC(C)=O)C(=O)N[C@@H](Cc1ccc(O)cc1)C(=O)N[C@H]1CSSC[C@@H](C(=O)N[C@@H](Cc2c[nH]c3ccccc23)C(=O)N[C@@H](Cc2ccccc2)C(=O)N[C@H](C(=O)N[C@H](CCCCNC(=O)CN2CCN(CC(=O)O)CCN(CC(=O)O)CCN(CC(=O)O)CC2)C(N)=O)[C@@H](C)O)NC(=O)[C@H](Cc2ccc(O)cc2)NC(=O)[C@H](C(C)C)NC(=O)[C@H](CC(=O)O)NC(=O)[C@H](Cc2ccc(O)cc2)NC(=O)[C@H](CCCCN)NC(=O)CNC(=O)[C@H](C(C)(C)C)NC1=O [compound 61, Ac-Nle-Y-C-Tbg-G-K-Y-D-V-Y-C-W-F-Thr-dLys(DOTA)-CONH2] (Ac-[Nle]YC[Tle]GKYDVYCWFT[dK](DOTA)-NH2; disulfide 3-11)"
100 to 300,,"CCCC[C@H](NC(C)=O)C(=O)N[C@@H](Cc1ccc(O)cc1)C(=O)N[C@H]1CSSC[C@@H](C(=O)N[C@@H](Cc2c[nH]c3ccccc23)C(=O)N[C@@H](Cc2ccccc2)C(=O)N[C@H](C(=O)N[C@H](CCCCNC(=O)CN2CCN(CC(=O)O)CCN(CC(=O)O)CCN(CC(=O)O)CC2)C(N)=O)[C@@H](C)O)NC(=O)[C@H](Cc2ccc(O)cc2)NC(=O)[C@H](C(C)(C)C)NC(=O)[C@H](CC(=O)O)NC(=O)[C@H](Cc2ccc(O)cc2)NC(=O)[C@H](CCCCN)NC(=O)CNC(=O)[C@H](C(C)C)NC1=O [compound 62, Ac-Nle-Y-C-V-G-K-Y-D-Tbg-Y-C-W-F-Thr-dLys(DOTA)-CONH2] (Ac-[Nle]YCVGKYD[Tle]YCWFT[dK](DOTA)-NH2; disulfide 3-11)"
1 to 10,,"CCCC[C@H](NC(C)=O)C(=O)N[C@@H](Cc1ccc(O)cc1)C(=O)N[C@H]1CSSC[C@@H](C(=O)N[C@@H](Cc2c[nH]c3ccccc23)C(=O)N[C@@H](Cc2ccccc2)C(=O)N[C@H](C(=O)N[C@H](CCCCNC(=O)CN2CCN(CC(=O)O)CCN(CC(=O)O)CCN(CC(=O)O)CC2)C(N)=O)[C@@H](C)O)NC(=O)[C@H](Cc2ccc(O)cc2)NC(=O)[C@H](C(C)C)NC(=O)[C@H](CC(=O)O)NC(=O)[C@H](Cc2ccc(O)cc2)NC(=O)[C@H](CCCN)NC(=O)CNC(=O)[C@H](C(C)C)NC1=O [compound 63, Ac-Nle-Y-C-V-G-Orn-Y-D-V-Y-C-W-F-Thr-dLys(DOTA)-CONH2] (Ac-[Nle]YCVG[Orn]YDVYCWFT[dK](DOTA)-NH2; disulfide 3-11)"

# Source: US20250296959A1, “B7-H3 TARGETING PEPTIDES AND CONSTRUCTS THEREOF” (Mariana Oncology Inc., priority 2024, published 2025)
